Laboratory results reported in article PMC8745314, “Novel Tetrazole-Based Antimicrobial Agents Targeting Clinical Bacteria Strains: Exploring the Inhibition of Staphylococcus aureus DNA Topoisomerase IV and Gyrase” (International Journal of Molecular Sciences, 2021).

Key:
[1] = target: S. aureus DNA gyrase (Staphylococcus aureus, UniProt P0A0K8+P20831); experiment: DNA gyrase supercoiling assay; format: biochemical; conditions: pBR322, read-out: IC50 ± S.E.M. for DNA Gyrase (converted)
Procedure: Description related to conducted biological studies including cell culture, suitable conditions, and methodology was presented in our previous paper.
Figure 2 The influence of tested compounds on S. aureus DNA gyrase activity. Decreasing amounts of 1, 2, or 3 were incubated with supercoiled pBR322 plasmid DNA (500 ng) and run-on agarose gel. Lane 1: S. aureus DNA gyrase assay with DMSO (control). Lane: 2–5: compound 3 at concentrations 64, 32, 8, 2 μg/mL, respectively. Lane: 6–9: compound 2 at concentrations 64, 32, 8, 2 μg/mL, respectively. Lane: 10–13: compound 1 at concentrations 64, 32, 8, 2 μg/mL, respectively.

[2] = tested on: standard and clinical Gram-positive and Gram-negative bacterial strains; experiment: MIC range over standard and clinical strains (abstract); format: cell-based
Procedure: Eleven novel imide-tetrazoles were synthesized. In the initial stage of research, in silico structure-based pharmacological prediction was conducted. All compounds were screened for antimicrobial activity using standard and clinical strains. Within the studied group, compounds 1–3 were recognized as leading structures with the most promising results in antimicrobial studies. […] Additionally, all three inhibited the growth of all clinical Staphylococci panels: Staphylococcus aureus (T5592; T5591) and Staphylococcus epidermidis (5253; 4243) with MIC values of 0.8 μg/mL. Selected compounds were examined in topoisomerase IV decatenation assay and DNA gyrase supercoiling assay, followed by suitable molecular docking studies to explore the possible binding modes. […] The compounds 1–3 proposed here provide a promising basis for further exploration towards novel antimicrobial drug candidates.
The antimicrobial assays were conducted using reference strains of bacteria derived from international microbe collections: American Type Culture Collection (ATCC) and National Collection of Type Culture (NCTC). The following standard strains of bacteria were used: Gram-positive—Staphylococcus aureus NCTC 4163, Staphylococcus aureus ATCC 25923, Staphylococcus aureus ATCC 6538, Staphylococcus aureus ATCC 29213, Staphylococcus epidermidis ATCC 12228, Staphylococcus epidermidis ATCC 35984, Gram-negative: Escherichia coli ATCC 25922, Pseudomonas aeruginosa ATCC 15442. […] MIC was determined by the two-fold serial broth microdilution method in 96-well microtitration plates using Mueller–Hinton II broth medium (Becton Dickinson, Franklin Lakes, NJ, USA). […]

S. aureus DNA gyrase, sequence (P0A0K8 whole entry): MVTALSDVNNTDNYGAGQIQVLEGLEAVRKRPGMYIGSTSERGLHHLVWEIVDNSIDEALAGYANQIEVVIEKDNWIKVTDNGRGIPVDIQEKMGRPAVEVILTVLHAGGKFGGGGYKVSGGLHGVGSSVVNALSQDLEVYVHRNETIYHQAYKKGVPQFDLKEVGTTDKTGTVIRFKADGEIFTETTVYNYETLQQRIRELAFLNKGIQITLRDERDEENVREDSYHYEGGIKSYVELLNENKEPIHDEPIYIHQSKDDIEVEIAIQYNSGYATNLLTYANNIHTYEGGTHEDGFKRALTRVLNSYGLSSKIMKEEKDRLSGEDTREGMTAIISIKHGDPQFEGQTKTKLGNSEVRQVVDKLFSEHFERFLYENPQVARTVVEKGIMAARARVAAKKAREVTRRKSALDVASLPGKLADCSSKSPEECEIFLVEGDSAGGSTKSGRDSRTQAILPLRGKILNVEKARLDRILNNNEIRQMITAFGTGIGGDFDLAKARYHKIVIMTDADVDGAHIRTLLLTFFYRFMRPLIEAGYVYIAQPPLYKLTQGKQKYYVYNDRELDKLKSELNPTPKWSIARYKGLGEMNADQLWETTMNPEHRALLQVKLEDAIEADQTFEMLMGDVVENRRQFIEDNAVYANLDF
S. aureus DNA gyrase, sequence (P20831 whole entry): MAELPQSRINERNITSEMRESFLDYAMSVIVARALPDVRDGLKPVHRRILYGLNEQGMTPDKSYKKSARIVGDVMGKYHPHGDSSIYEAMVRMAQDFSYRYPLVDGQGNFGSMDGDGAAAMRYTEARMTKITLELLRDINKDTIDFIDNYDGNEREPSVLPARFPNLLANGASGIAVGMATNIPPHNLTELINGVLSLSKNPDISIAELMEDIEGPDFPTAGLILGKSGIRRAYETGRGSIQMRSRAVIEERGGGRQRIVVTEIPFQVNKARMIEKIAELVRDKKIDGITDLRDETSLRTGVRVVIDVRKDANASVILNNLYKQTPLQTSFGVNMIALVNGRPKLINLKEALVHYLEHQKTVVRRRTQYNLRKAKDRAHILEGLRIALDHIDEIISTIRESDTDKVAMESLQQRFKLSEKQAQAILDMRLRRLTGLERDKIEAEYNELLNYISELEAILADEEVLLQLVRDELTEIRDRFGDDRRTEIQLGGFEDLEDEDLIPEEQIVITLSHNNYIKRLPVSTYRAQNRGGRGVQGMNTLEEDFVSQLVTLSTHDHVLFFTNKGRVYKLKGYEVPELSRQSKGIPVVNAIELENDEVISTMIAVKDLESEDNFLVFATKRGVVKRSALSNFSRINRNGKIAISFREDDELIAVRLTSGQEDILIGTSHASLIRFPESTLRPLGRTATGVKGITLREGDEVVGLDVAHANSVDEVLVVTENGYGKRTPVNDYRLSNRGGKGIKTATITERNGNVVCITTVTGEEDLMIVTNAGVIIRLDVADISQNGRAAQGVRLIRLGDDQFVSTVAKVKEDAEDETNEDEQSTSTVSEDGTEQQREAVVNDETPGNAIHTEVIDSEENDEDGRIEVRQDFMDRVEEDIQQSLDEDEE

SMILES	IC50 [1] [µM]	MIC values, range [2] [µg/mL]
CC1=C(C)C2(C)CC1(C)C1C(=O)N(Nc3nnnn3-c3cccc(C(F)(F)F)c3)C(=O)C12 (stereo not drawn) [Compound 1, 4,5,6,7-Tetramethyl-2-((1-(3-(trifluoromethyl)phenyl)-1H-tetrazol-5-yl)amino)-3a,4,7,7a-tetrahydro-1H-4,7-methanoisoindole-1,3(2H)-dione]	71.8	0.8 to 3.2
CC1=C(C)C2(C)CC1(C)C1C(=O)N(Nc3nnnn3-c3ccccc3Br)C(=O)C12 (stereo not drawn) [Compound 3, 2-((1-(2-Bromophenyl)-1H-tetrazol-5-yl)amino)-4,5,6,7-tetramethyl-3a,4,7,7a-tetrahydro-1H-4,7-methanoisoindole-1,3(2H)-dione]	99.3	0.8 to 3.2
CC1=C(C)C2(C)CC1(C)C1C(=O)N(Nc3nnnn3-c3ccccc3Cl)C(=O)C12 (stereo not drawn) [Compound 2, 2-((1-(2-Chlorophenyl)-1H-tetrazol-5-yl)amino)-4,5,6,7-tetramethyl-3a,4,7,7a-tetrahydro-1H-4,7-methanoisoindole-1,3(2H)-dione]	90.9	0.8 to 3.2
